Data on 16 compounds can be found in patent publication US7524853B2 (Solvay Pharmaceuticals B.V., priority 2003, dated 2009).

What is called inhibition is the drop in the measured response relative to a control, in per cent.

What all share (type): cell-based
The target of assay [1] is T1, 17β-hydroxysteroid dehydrogenase type 1 (17β-HSD type 1) (Homo sapiens, UniProt P14061).
T1 construct: expressed in transfected cells; host or cells: MCF-7
T1 sequence (P14061 1-328): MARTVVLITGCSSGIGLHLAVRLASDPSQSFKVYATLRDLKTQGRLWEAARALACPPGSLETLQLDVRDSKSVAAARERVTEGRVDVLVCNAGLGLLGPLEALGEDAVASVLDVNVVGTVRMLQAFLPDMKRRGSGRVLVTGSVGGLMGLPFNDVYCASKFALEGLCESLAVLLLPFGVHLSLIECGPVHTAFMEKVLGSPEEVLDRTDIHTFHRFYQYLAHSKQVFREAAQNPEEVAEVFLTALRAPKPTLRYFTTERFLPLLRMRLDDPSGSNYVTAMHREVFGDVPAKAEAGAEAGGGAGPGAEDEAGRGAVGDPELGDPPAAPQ
Description: Inhibition of 17β-HSD type 1 in MCF-7 cells stably expressing the isoenzyme (tritium labeled estrone conversion, HPLC). To be noted: MCF7, MCF-7 cells expressing 17β-HSD type 1, 2 nM tritium labeled estrone; for inhibition at 1 µM: 1 μM test compound, read-out: % Inhibition HSD1 1 μM; for inhibition at 10 µM: 10 μM test compound, read-out: % Inhibition HSD1 10 μM. The essentials:
(§1)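 Compounds are tested at two concentrations on MCF-7 cells carrying a single 17β-HSD isoenzyme, with 2 nM tritiated estrone, estradiol or androstenedione as type 1, 2 or 3 substrate. Percent inhibition reflects lower conversion relative to a compound-free control.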

The target of assay [2] is T2, 17β-hydroxysteroid dehydrogenase type 2 (17β-HSD type 2) (Homo sapiens, UniProt P37059).
T2 construct: expressed in transfected cells; host or cells: MCF-7
T2 sequence (P37059 1-387): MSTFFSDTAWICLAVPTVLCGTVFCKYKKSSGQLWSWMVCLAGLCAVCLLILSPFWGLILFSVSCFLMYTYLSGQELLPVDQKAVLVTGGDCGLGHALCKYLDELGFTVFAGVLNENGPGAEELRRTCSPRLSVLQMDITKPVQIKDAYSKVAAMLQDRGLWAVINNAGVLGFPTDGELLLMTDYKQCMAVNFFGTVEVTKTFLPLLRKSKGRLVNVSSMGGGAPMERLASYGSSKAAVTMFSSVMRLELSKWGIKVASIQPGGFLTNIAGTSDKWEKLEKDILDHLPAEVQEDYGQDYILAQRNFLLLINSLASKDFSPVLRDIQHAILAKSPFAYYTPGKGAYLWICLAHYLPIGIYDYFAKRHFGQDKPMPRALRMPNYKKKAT
The experiment in a line: Inhibition of 17β-HSD type 2 in MCF-7 cells stably expressing the isoenzyme (tritium labeled estradiol conversion, HPLC). To be noted: MCF7, MCF-7 cells expressing 17β-HSD type 2, 2 nM tritium labeled estradiol; for inhibition at 1 µM: 1 μM test compound, read-out: % Inhibition HSD2 1 μM; for inhibition at 10 µM: 10 μM test compound, read-out: % Inhibition HSD2 10 μM. The essentials:
as §1

Assay [3] concerns the target T3, 17β-hydroxysteroid dehydrogenase type 3 (17β-HSD type 3) (Homo sapiens, UniProt P37058).
T3 construct: expressed in transfected cells; host or cells: MCF-7
T3 sequence (P37058 1-310): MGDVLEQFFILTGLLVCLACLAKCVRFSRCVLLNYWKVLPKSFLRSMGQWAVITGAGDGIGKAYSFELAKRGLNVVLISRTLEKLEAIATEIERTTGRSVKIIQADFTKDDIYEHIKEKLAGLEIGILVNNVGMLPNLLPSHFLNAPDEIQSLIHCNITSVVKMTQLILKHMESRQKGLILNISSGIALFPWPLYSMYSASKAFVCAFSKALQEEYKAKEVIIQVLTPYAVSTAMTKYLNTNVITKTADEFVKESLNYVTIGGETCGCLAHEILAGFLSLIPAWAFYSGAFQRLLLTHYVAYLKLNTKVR
Description: Inhibition of 17β-HSD type 3 in MCF-7 cells stably expressing the isoenzyme (tritium labeled androstenedione conversion, HPLC). To be noted: MCF7, MCF-7 cells expressing 17β-HSD type 3, 2 nM tritium labeled androstenedione; for inhibition at 1 µM: 1 μM test compound, read-out: % Inhibition HSD3 1 μM; for inhibition at 10 µM: 10 μM test compound, read-out: % Inhibition HSD3 10 μM. The essentials:
as §1

Turning to `CCCCn1c(-c2cc(OC)c(OC)c(OC)c2)nc2sc3c(c2c1=O)CCC(Br)C3=O` (stereo not drawn) [No. 87, 7-Bromo-3-butyl-2-(3,4,5-trimethoxyphenyl)-6,7-dihydro-3H,5H-benzo[4,5]thieno[2,3-d]pyrimidine-4,8-dione], the inhibition at 1 µM worked out at 26.8% in assay [1], 24.6% in assay [2] and 13% in assay [3]. Besides, the results for the inhibition at 10 µM in assay [1], in assay [2] and in assay [3] were 67.4%, 23.4% and 31.9%, respectively.
`CCCCn1c(-c2cc(OC)c(OC)c(OC)c2)nc2sc3c(c2c1=O)CCC(Br)(Br)C3=O` [No. 88, 3-Butyl-7,7-dibromo-2-(3,4,5-trimethoxyphenyl)-6,7-dihydro-3H,5H-benzo[4,5]thieno[2,3-d]pyrimidine-4,8-dione]: the inhibition at 1 µM in assay [1] amounted to 25%; in assay [2], 25.9%; in assay [3] it was 20.4%. Further, the inhibition at 10 µM was found to be 40.5% in assay [1], 29.9% in assay [2] and 23.3% in assay [3].
Take `CCCCn1c(-c2cc(OC)c(OC)c(OC)c2)nc2sc3c(O)cccc3c2c1=O` [No. 89, 3-Butyl-8-hydroxy-2-(3,4,5-trimethoxyphenyl)-3H-benzo[4,5]thieno[2,3-d]pyrimidin-4-one]: the inhibition at 1 µM in assay [1] stood at 37.7%; in assay [2], 31.2%; in assay [3], 30.9%. For the same compound, the inhibition at 10 µM in assay [1] was 84.7%; in assay [2], 40.1%; in assay [3], 80.1%.
On to `CCCCn1c(-c2cc(OC)c(OC)c(OC)c2)nc2sc3c(O)c(Br)ccc3c2c1=O` [No. 90, 7-Bromo-3-butyl-8-hydroxy-2-(3,4,5-trimethoxyphenyl)-3H-benzo[4,5]thieno[2,3-d]pyrimidin-4-one], for which the inhibition at 1 µM in assay [1] is 15.5%; in assay [2], 16.1%; in assay [3] it was 4%. Besides, the inhibition at 10 µM in assay [1] amounted to 24.7%; in assay [2], 22%; in assay [3], 11.3%.
With `COc1cc(-c2nc3sc4c(OC)cccc4c3c(=O)n2Cc2ccccc2)c(Br)c(OC)c1OC` [No. 91, 3-Benzyl-8-methoxy-2-(2-bromo-3,4,5-trimethoxyphenyl)-3H-benzo[4,5]thieno[2,3-d]pyrimidin-4-one], the inhibition at 1 µM in assay [1] came out at 21.5%; in assay [2] it was 28.2%; in assay [3], 3.7%. Also, the inhibition at 10 µM in assay [1] turned out to be 26.1%; in assay [2], 33.7%; in assay [3], 18.1%.
With `O=c1c2c(nc(-c3ccccc3)n1Cc1ccccc1)sc1c(O)c(Br)ccc12` [No. 92, 3-Benzyl-7-bromo-8-hydroxy-2-phenyl-3H-benzo[4,5]thieno[2,3-d]pyrimidin-4-one], the inhibition at 1 µM in assay [1] stood at 22%; in assay [2], 42.7%; in assay [3], 4.7%. Moreover, the inhibition at 10 µM in assay [1] turned out to be 23.3%; in assay [2] it was 60.9%; in assay [3], 24.3%.
Consider `CC(=O)Oc1c(Br)ccc2c1sc1nc(-c3ccccc3)n(Cc3ccccc3)c(=O)c12` [No. 93, Acetic acid 3-benzyl-7-bromo-4-oxo-2-phenyl-3,4-dihydro-benzo[4,5]thieno[2,3-d]pyrimidin-8-yl ester], for which the inhibition at 1 µM was 13.3% in assay [1], 43.2% in assay [2] and 19.4% in assay [3]. In addition, the inhibition at 10 µM in assay [1] came out at 11.7%; in assay [2], 57.7%; in assay [3], 26.1%.
For the compound `CCCc1nc2sc3c(c2c(=O)n1Cc1ccccc1OC)CCCC3` [No. 94, 3-(2-Methoxybenzyl)-2-propyl-5,6,7,8-tetrahydro-3H-benzo[4,5]thieno[2,3-d]pyrimidin-4-one], the inhibition at 1 µM worked out at 16.5% in assay [1], 25.7% in assay [2] and 2.2% in assay [3]. The inhibition at 10 µM in assay [1] was 27.2%; in assay [2], 31.5%; in assay [3], 21.1%.
Take `CCCc1nc2sc3c(c2c(=O)n1Cc1ccccc1OC)CCCC3=O` [No. 95, 3-(2-Methoxybenzyl)-2-propyl-6,7-dihydro-3H,5H-benzo[4,5]thieno[2,3-d]pyrimidine-4,8-dione]: the inhibition at 1 µM amounted to 17% in assay [1], 6.9% in assay [2] and 9.9% in assay [3]. For the same compound, the results for the inhibition at 10 µM in assay [1], in assay [2] and in assay [3] were 59.6%, 31.2% and 62.4%, respectively.
As for `CCCc1nc2sc3c(c2c(=O)n1Cc1cc(Br)ccc1OC)CCC(Br)C3=O` (stereo not drawn) [No. 96], the inhibition at 1 µM was determined as 19.5% in assay [1], 17.2% in assay [2] and 13% in assay [3]. Also, the figures for the inhibition at 10 µM in assay [1], in assay [2] and in assay [3] were 65.1%, 21.9% and 37.5%, respectively.
For the compound `CCCc1nc2sc3c(c2c(=O)n1Cc1cc(Br)ccc1OC)CCC(Br)(Br)C3=O` [No. 97, 7,7-Dibromo-3-(5-bromo-2-methoxybenzyl)-2-propyl-6,7-dihydro-3H,5H-benzo[4,5]thieno[2,3-d]pyrimidine-4,8-dione], the inhibition at 1 µM in assay [1] is 18.1%; in assay [2], 25.2%; in assay [3], -5.9%. For the same compound, the inhibition at 10 µM was determined as 29.4% in assay [1], 44.6% in assay [2] and 11.5% in assay [3].
For the compound `CCCc1nc2sc3c(O)cccc3c2c(=O)n1Cc1cc(Br)ccc1OC` [No. 98], the inhibition at 1 µM in assay [1] amounted to 28.2%; in assay [2], 46.6%; in assay [3] it was 16.6%. For the same compound, the inhibition at 10 µM in assay [1] is 69.1%; in assay [2], 82.8%; in assay [3] it was 63.3%.
As to `CCCc1nc2sc3c(OC(C)=O)cccc3c2c(=O)n1Cc1cc(Br)ccc1OC` [No. 99], the inhibition at 1 µM turned out to be 21.8% in assay [1], 46.1% in assay [2] and 15.9% in assay [3]. Besides, the inhibition at 10 µM in assay [1] was 64.5%; in assay [2], 85.4%; in assay [3], 68.9%.
On to `CCCc1nc2sc3c(O)cccc3c2c(=O)n1Cc1cc(Br)ccc1O` [No. 100, 3-(5-Bromo-2-hydroxybenzyl)-8-hydroxy-2-propyl-3H-benzo[4,5]thieno[2,3-d]pyrimidin-4-one], for which the values for the inhibition at 1 µM in assay [1], in assay [2] and in assay [3] were 23.5%, 28.8% and -0.8%, respectively. For the same compound, the results for the inhibition at 10 µM in assay [1], in assay [2] and in assay [3] were 66.7%, 81.3% and 7.7%, respectively.
In the case of `CCCc1nc2sc3c(c2c(=O)n1Cc1ccco1)CCCC3` [No. 101, 3-(Furan-2-ylmethyl)-2-propyl-5,6,7,8-tetrahydro-3H-benzo[4,5]thieno[2,3-d]pyrimidin-4-one], the inhibition at 1 µM is 14.1% in assay [1], 18% in assay [2] and 5.7% in assay [3]. Further, the values for the inhibition at 10 µM in assay [1], in assay [2] and in assay [3] were 26%, 30% and 7.8%, respectively.
On to `CCCc1nc2sc3c(c2c(=O)n1Cc1ccco1)CCCC3=O` [No. 102, 3-(Furan-2-ylmethyl)-2-propyl-6,7-dihydro-3H,5H-benzo[4,5]thieno[2,3-d]pyrimidine-4,8-dione], for which the inhibition at 1 µM was 14.8% in assay [1], 13.6% in assay [2] and 6.7% in assay [3]. Besides, the inhibition at 10 µM in assay [1] amounted to 57.5%; in assay [2], 18.6%; in assay [3] it was 51.2%.
